Experiments:
interferon (α) = experiment: Cytokine induction in human cells: interferon secreted by PBMCs, ELISA; format: cell-based; conditions: PBMC, incubated 18 to 24 hours, interferon determined by ELISA, read-out: Lowest Effective Concentration (μM) Interferon
From the text: (§1) An in vitro human blood cell system was used to assess cytokine induction by compounds of the invention. Activity is based on the measurement of interferon and tumor necrosis factor (α) (IFN and TNF, respectively) secreted into culture media as described by Testerman et. al. In “Cytokine Induction by the Immunomodulators Imiquimod and S-27609”, Journal of Leukocyte Biology, 58, 365-372 (September, 1995).
(§2) Whole blood is collected by venipuncture into EDTA vacutainer tubes from healthy human donors. Peripheral blood mononuclear cells (PBMCs) are separated from whole blood by density gradient centrifugation using Histopaque®-1077 (Sigma Chemicals, St. Louis, Mo.). The PBMCs are suspended at 3-4×10^6 cells/mL in RPMI 1640 medium containing 10% fetal bovine serum, 2 mM L-glutamine and 1% penicillin/streptomycin solution (RPMI complete). The PBMC suspension is added to 48 well flat bottom sterile tissue culture plates (Costar, Cambridge, Mass. or Becton Dickinson Labware, Lincoln Park, N.J.) containing an equal volume of RPMI complete media containing test compound.
(§3) The compounds are solubilized in dimethyl sulfoxide (DMSO). The DMSO concentration should not exceed a final concentration of 1% for addition to the culture wells.
(§4) The solution of test compound is added at 60 μM to the first well containing RPMI complete and serial (three fold or ten fold) dilutions are made. The PBMC suspension is then added to the wells in an equal volume, bringing the test compound concentrations to the desired range. The final concentration of PBMC suspension is 1.5-2×10^6 cells/mL. The plates are covered with sterile plastic lids, mixed gently and then incubated for 18 to 24 hours at 37° C. in a 5% carbon dioxide atmosphere.
(§5) Following incubation the plates are centrifuged for 5-10 minutes at 1000 rpm (˜200×g) at 4° C. The cell culture supernatant is removed with a sterile polypropylene pipet and transferred to sterile polypropylene tubes. Samples are maintained at −30 to −70° C. until analysis. The samples are analyzed for interferon (α) by either ELISA or bioassay and for tumor necrosis factor (α) by ELISA.
Interferon (α) concentration is determined by ELISA using a Human Multi-Species kit from PBL Biomedical Laboratories, New Brunswick, N.J.
(§6) The table below lists the lowest concentration found to induce interferon and the lowest concentration found to induce tumor necrosis factor for each compound. […] Unless otherwise indicated, the interferon biosynthesis was determined by ELISA.

[1] = tested on: tumor necrosis factor (α); experiment: Cytokine induction in human cells: tumor necrosis factor (α) secreted by PBMCs, ELISA; format: cell-based; conditions: PBMC, incubated 18 to 24 hours, TNF determined by ELISA, read-out: Lowest Effective Concentration (μM) Tumor Necrosis Factor
From the text: as §1, §2, §3, §4, §5
Tumor necrosis factor (α) (TNF)concentration is determined using ELISA kits available from Genzyme, Cambridge, Mass.; R&D Systems, Minneapolis, Minn.; or Pharmingen, San Diego, Calif.
as §6

Row | SMILES | minimal effective concentration (interferon (α)) | minimal effective concentration [1]
1 | COc1ccc(CN(CCCCn2cnc3c(N)nc4ccccc4c32)C(C)=O)cc1 [Example 120] | 0.37 µM | > 30 µM
2 | CC(=O)N(CCCCn1cnc2c(N)nc3ccccc3c21)Cc1ccc(Br)cc1 [Example 121] | 1.11 µM | > 30 µM
3 | CC(=O)N(CCCCn1cnc2c(N)nc3ccccc3c21)Cc1cc(Br)ccc1O [Example 122] | 3.33 µM | > 30 µM
4 | CCCCOc1ccc(CN(CCCCn2cnc3c(N)nc4ccccc4c32)C(C)=O)cc1 [Example 123] | 3.33 µM | > 30 µM
5 | CC(=O)N(CCCCn1cnc2c(N)nc3ccccc3c21)Cc1ccccc1Cl [Example 124] | 1.11 µM | 3.33 µM
6 | CC(=O)N(CCCCn1cnc2c(N)nc3ccccc3c21)Cc1cc([N+](=O)[O-])ccc1Cl [Example 125] | 1.11 µM | > 30 µM
7 | CC(=O)N(CCCCn1cnc2c(N)nc3ccccc3c21)Cc1cc(Cl)ccc1[N+](=O)[O-] [Example 126] | 3.33 µM | > 30 µM
8 | CC(=O)N(CCCCn1cnc2c(N)nc3ccccc3c21)Cc1ccccc1Sc1ccc(Cl)cc1 [Example 127] | > 30 µM | > 30 µM
9 | CC(=O)N(CCCCn1cnc2c(N)nc3ccccc3c21)Cc1cc(Cl)cc(Cl)c1 [Example 128] | 3.33 µM | 1.11 µM
10 | CC(=O)N(CCCCn1cnc2c(N)nc3ccccc3c21)Cc1ccc(F)c(F)c1 [Example 129] | 3.33 µM | > 30 µM
11 | COc1ccc(OC)c(CN(CCCCn2cnc3c(N)nc4ccccc4c32)C(C)=O)c1 [Example 130] | 1.11 µM | 10 µM
12 | COc1cccc(CN(CCCCn2cnc3c(N)nc4ccccc4c32)C(C)=O)c1OC [Example 131] | 3.33 µM | > 30 µM
13 | CC(=O)N(CCCCn1cnc2c(N)nc3ccccc3c21)Cc1ccc(C)cc1C [Example 132] | 1.11 µM | 3.33 µM
14 | CCc1ccc(CN(CCCCn2cnc3c(N)nc4ccccc4c32)C(C)=O)o1 [Example 133] | 3.33 µM | > 30 µM
15 | CC(=O)N(CCCCn1cnc2c(N)nc3ccccc3c21)Cc1ccco1 [Example 134] | 0.37 µM | > 30 µM
16 | CC(=O)N(CCCCn1cnc2c(N)nc3ccccc3c21)Cc1ccoc1 [Example 135] | 0.12 µM | > 30 µM
17 | CC(=O)N(CCCCn1cnc2c(N)nc3ccccc3c21)CCCc1ccccc1 [Example 136] | 1.11 µM | > 30 µM
18 | CCCCCCCCN(CCCCn1cnc2c(N)nc3ccccc3c21)C(C)=O [Example 137] | 10 µM | > 30 µM
19 | CC(=O)N(CCCCn1cnc2c(N)nc3ccccc3c21)Cc1cccc2ccccc12 [Example 138] | 1.11 µM | > 30 µM
20 | COc1ccc2ccccc2c1CN(CCCCn1cnc2c(N)nc3ccccc3c21)C(C)=O [Example 139] | > 30 µM | > 30 µM
21 | CC(=O)N(CCCCn1cnc2c(N)nc3ccccc3c21)Cc1ccc([N+](=O)[O-])cc1 [Example 140] | 1.11 µM | > 30 µM
22 | CC(=O)N(CCCCn1cnc2c(N)nc3ccccc3c21)Cc1ccccc1[N+](=O)[O-] [Example 141] | 0.37 µM | > 30 µM
23 | CC(=O)N(CCCCn1cnc2c(N)nc3ccccc3c21)Cc1ccncc1 [Example 143] | 0.12 µM | > 30 µM
24 | CC(=O)N(CCCCn1cnc2c(N)nc3ccccc3c21)Cc1ccccc1C [Example 144] | 1.11 µM | > 30 µM

— patent US6756382B2, “Amide substituted imidazoquinolines” (3M Innovative Properties Company, priority 1999, dated 2004)
